Among the data in the Bradley open melting point set (2014) are melting point values, retold here.

Several values for one entry are separate records, joined by “and”; a condition that tells them apart may be missing. Equal values may be shown once.

What is called melting point is the temperature of the solid-liquid transition. As for `ClC(Cl)c1ccccc1` [a,a-dichlorotoluene], the melting point was -16 °C. `Oc1cccc(Cl)n1` [2-chloro-6-hydroxypyridine] came in with a melting point of 130 °C. `CCCCCCCCCCCCCCCCCCS` [1-octadecanethiol] gave a melting point of 32 °C. The same measure for `ClC(Cl)(Cl)C(Cl)(Cl)Cl` [Hexachloroethane]: 192 °C; for `[O-][n+]1cccc(Br)c1` [3-bromopyridine n-oxide]: 35 °C.

`COc1ccc(N/N=C(\C#N)c2nc(-c3ccc(C)cc3)cs2)cc1` had a melting point of 146 °C. For `N#Cc1ccc(C=O)cc1` [4-cyanobenzaldehyde], the melting point worked out at 102 °C. The same measure for `C=CCc1ccccc1O` [2-allylphenol]: -6 °C; for `Cc1cc([N+](=O)[O-])ccc1Cl` [2-chloro-5-nitrotoluene]: 43 °C; for `CN(C)c1ccc(C(C(=O)NC(C)(C)C)N(C)C(=O)CCCc2ccc3ccc4cccc5ccc2c3c45)cc1` (centres undefined) [Ugi product 171K (UC)]: 194 °C. The same measure for `COc1ccc(CCN2CCC(Nc3nc4ccccc4n3Cc3ccc(F)cc3)CC2)cc1` [astemizole]: 149 °C; for `CCCCCCCC/C=C/CCCCCCCC(=O)OC` [methyl elaidate]: 10 °C.

In the case of `O=S(=O)(c1ccccc1)c1ccsc1` [3-(phenylsulfonyl)thiophene], the melting point worked out at 116 °C. With `CC(C)(C)NC(=O)[C@@H]1CC2CCCCC2CN1C[C@@H](O)[C@H](Cc1ccccc1)NC(=O)[C@H](CC(N)=O)NC(=O)c1ccc2ccccc2n1` (some centres undefined) [Saquinavir] the figure was 350 °C; with `CCCCCCl` [1-chloropentane], -99 °C; with `O=C(O)COc1cccc(Cl)c1` [3-chlorophenoxyacetic acid], 108 °C. Regarding `CCCN1C(=O)CCC(N2C(=O)c3ccccc3C2=O)C1=O` (centres undefined) [N-Propylthalidomide], the melting point came out at 136 °C. The same measure for `Br` [Hydrogen bromide]: -87 °C and -86 °C. The same measure for `Cc1ccc(Sc2ccccc2NS(=O)(=O)c2ccc(C)cc2)cc1`: 83.8 °C. In turn, `SCCS` [1,2-ethanedithiol] had a melting point of -41 °C. With `C=C(C)C(=O)OC` [methyl_methacrylate] the figure was -48 °C. With `CC(C)(C)OC(=O)N[C@@H](Cc1ccc(Br)cc1)C(=O)O` [N-boc-4-bromo-L-phenylalanine] the figure was 119 °C; with `C[C@]12CC[C@@H]3O[C@@H]3[C@H]1CC[C@@H]1[C@@H]2CC[C@]2(C)C(=O)CC[C@@H]12` [(3beta,4beta,5beta)-3,4-Epoxyandrostan-17-one], 136 °C; with `Cc1cc(O)ccc1Cl` [4-chloro-3-methylphenol], 67 °C. With `Cc1c(C)c(C#N)c2ccccc2c1C#N` [2,3-dimethylnaphthalene-1,4-dicarbonitrile] the figure was 263 °C; with `O=C(CCCc1ccccc1)c1ccccc1` [1,4-diphenyl-1-butanone], 55 °C. In turn, `Cc1cc(O)c(C(C)C)cc1Cl` [4-chloro-2-isopropyl-5-methylphenol] gave a melting point of 60 °C. The molecule `CCCCCCCCCCCC(=O)OOC(=O)CCCCCCCCCCC` [Diundecylperoxyanhydride] had a melting point of 56 °C.

In the case of `COc1ccc(CC#N)cc1OC` [3,4-dimethoxyphenylacetonitrile], the melting point stood at 64 °C. The same measure for `Nc1cccc(I)c1` [m-iodoaniline]: 25 °C; for `CN(C)CCC=C1c2ccccc2COc2ccccc21` [Doxepin]: 185 °C; for `COC1=C(OC)C(=O)C(C/C=C(\C)CC/C=C(\C)CC/C=C(\C)CC/C=C(\C)CC/C=C(\C)CC/C=C(\C)CC/C=C(\C)CC/C=C(\C)CC/C=C(\C)CCC=C(C)C)=C(C)C1=O`: 49 °C. With `NC(CN(Cc1ccccc1)c1ccccc1)=NO` [Cetoxime] the figure was 107 °C; with `O=C(O)c1ccccc1C(=O)O` [Phthalic Acid], 230 °C; with `CC(=O)c1cccc(C(C)=O)c1` [m-diacetylbenzene], 36 °C.

As to `CCCCCCCCCCCCCCCCCC(=O)O[C@H]1CC[C@@]2(C)C(=CC[C@H]3[C@@H]4CC[C@H]([C@H](C)CCCC(C)C)[C@@]4(C)CC[C@@H]32)C1` [cholesteryl stearate], the melting point came to 80 °C. Regarding `COc1c(OC)c(=O)c1=O` [3,4-dimethoxy-3-cyclobutene-1,2-dione], the melting point came out at 55 °C. With `N#CC(CCc1ccc(Cl)cc1)(Cn1cncn1)c1ccccc1` (centres undefined) [fenbuconazole] the figure was 125 °C.

As to `CN1CC[C@@H](c2ccc(F)cc2)[C@H](CO)C1` [(3S,4R)-4-(4-fluorophenyl)-1-methyl-3-piperidinemethanol], the melting point is 96 °C. With `C#CCCCCCCC` [1-nonyne] the figure was -50 °C; with `Cc1ccc(CS(=O)(=O)Cl)cc1` [alpha-p-xylenesulfonyl chloride], 77 °C. With `CC1(C)CC(=O)c2c(cc3c(c2-c2ccccc2)-c2ccccc2OC3)C1` the figure was 191 °C; with `O=[PH](c1ccccc1)c1ccccc1` [diphenylphosphine oxide], 54 °C; with `C=CCCCCCCCCCCCC` [1-tetradecene], -12 °C. Turning to `CB(O)O` [methylboronic acid], the melting point turned out to be 92 °C.

`c1ccc(-c2c3ccccc3c(-c3ccccc3)c3ccccc23)cc1` [9,10-Diphenylanthracene] showed a melting point of 249 °C.

`Brc1ccccc1-c1nnn[nH]1` [5-(2-bromophenyl)-1h-tetrazole] displayed a melting point of 182 °C. The same measure for `c1ccc2c(c1)Cc1ccccc1C2` [9,10-Dihydroanthracene]: 109 °C; for `O=C1NC(=O)c2cc([N+](=O)[O-])ccc21` [4-nitrophthalimide]: 198 °C. With `CN(C)CCOc1ccc(/C(=C(\CCCl)c2ccccc2)c2ccccc2)cc1` the figure was 108 °C; with `COc1ccc(C)cc1OC` [3,4-dimethoxytoluene], 27 °C; with `CN(C)C(=O)Nc1ccccc1` [fenuron], 134 °C. The same measure for `C[SiH](C)O[Si](O[SiH](C)C)(O[SiH](C)C)O[SiH](C)C` [tetrakis(dimethylsiloxy)silane]: -60 °C; for `CCCCCCCCCCCCSc1cc(N(NC(=O)OC(C)(C)C)C(=O)OC(C)(C)C)cc(SCCCCCCCCCCCC)c1SCCCCCCCCCCCC`: 50 °C. Regarding `CCCCNC(=O)NS(=O)(=O)c1ccc(C)cc1` [Tolbutamide], the melting point worked out at 128 °C. The molecule `CCOC(=O)c1ccc(N)cc1` [ethyl 4-aminobenzoate] came in with a melting point of 89 °C. In the case of `CC(C)(C)c1cc(C#N)cc(C(C)(C)C)c1O` [3,5-di-tert-butyl-4-hydroxybenzonitrile], the melting point was determined as 142 °C. Regarding `CCCN(CCC)S(=O)(=O)c1ccc(C(=O)O)cc1` [4-(Dipropylsulfamoyl)benzoic acid], the melting point was found to be 195 °C. With `CC1C=CC=CCCC=CC=CC=CC=CC(OC2O[C@H](C)[C@@H](O)[C@H](N)[C@@H]2O)CC(O)C(C(=O)O)C(O)CC(=O)CC(O)C(O)CCC(O)CC(O)CC(O)CC(=O)OC(C)C(C)C1O` (some centres undefined) [Nystatin] the figure was 160 °C; with `O=C(O)/C=C/c1cccc(OC(F)(F)F)c1` [3-(trifluoromethoxy)cinnamic acid], 94 °C. With `CCCN(CCC)S(=O)(=O)c1ccc(C(=O)O)cc1` [probenecid] the figure was 198 °C; with `Cc1noc(NS(=O)(=O)c2ccc(N)cc2)c1C` [Sulfisoxazole], 194 °C; with `C1CCC(C2CCCCC2)CC1` [1,1'-Bi(cyclohexyl)], 4 °C. The same measure for `c1ccc2[nH]nnc2c1` [1h-benzotriazole]: 98 °C. In turn, `C[SiH](C)O[SiH](C)C` [1,1,3,3-tetramethyldisiloxane] registered a melting point of -78 °C.

In turn, `CCCCP(CCCC)CCCC` [Tributylphosphine] returned a melting point of -60 °C.

In turn, `ClC1C(Cl)C(Cl)C(Cl)C(Cl)C1Cl` (stereo not drawn) [alpha-hexachlorocyclohexane] showed a melting point of 160 °C. The same measure for `N#Cc1c2ccccc2cc2ccccc12` [anthracene-9-carbonitrile]: 177 °C; for `O=C(/C=C/c1ccc(-c2ccccc2)o1)c1ccccc1` [(2E)-1-phenyl-3-(5-phenyl-2-furyl)prop-2-en-1-one]: 80 °C. With `C[C@]12CCC(O)CC1=CC(=O)[C@@H]1[C@@H]2CC[C@]2(C)C(=O)CC[C@@H]12` (some centres undefined) [3-hydroxyandrost-5-ene-7,17-dione] the figure was 238 °C; with `CC1(C(=O)OC2OC(CO)C(O)C(O)C2O)CCCC2(C)C3CCC4CC3(CCC12)CC4(CO)OC1OC(CO)C(O)C(O)C1O` (centres undefined), 198 °C; with `N#C/C(=C\c1ccccc1)c1nc2ccccc2s1` [(2E)-2-(1,3-Benzothiazol-2-yl)-3-phenylacrylonitrile], 106 °C. On to `CC(=O)c1ccc(S(=O)(=O)NC(=O)NC2CCCCC2)cc1` [acetohexamide], for which the melting point was 188 °C. `FC(F)Cl` [Chloro(difluoro)methane] registered a melting point of -146 °C.

As to `O=[N+]([O-])c1c(Cl)c(Cl)c(Cl)c(Cl)c1Cl` [Pentachloronitrobenzene], the melting point turned out to be 144 °C. With `OC[C@H]1O[C@@H]2O[C@H]3[C@H](O)[C@@H](O)[C@@H](O[C@H]4[C@H](O)[C@@H](O)[C@@H](O[C@H]5[C@H](O)[C@@H](O)[C@@H](O[C@H]6[C@H](O)[C@@H](O)[C@@H](O[C@H]7[C@H](O)[C@@H](O)[C@@H](O[C@H]8[C@H](O)[C@@H](O)[C@@H](O[C@H]1[C@H](O)[C@H]2O)O[C@@H]8CO)O[C@@H]7CO)O[C@@H]6CO)O[C@@H]5CO)O[C@@H]4CO)O[C@@H]3CO` the figure was 290 °C; with `NCCS(=O)(=O)O` [2-Aminoethanesulfonic acid], 300 °C; with `CC(=O)OCC1OC(OC2C(COC(C)=O)OC(OC(C)=O)C(OC(C)=O)C2OC(C)=O)C(OC(C)=O)C(OC(C)=O)C1OC(C)=O` (centres undefined), 138 °C. With `O=C(O)C(=O)CBr` [bromopyruvic acid] the figure was 78 °C.
